Experiments:
CDK6/CyclinD3 = target: T1, CDK6/CyclinD3 (Homo sapiens, UniProt Q00534); test: CDK6/CyclinD3 kinase inhibitory activity (Caliper mobility shift); format: biochemical; settings: enzyme 15 nM, ATP 800 μM, 28° C. 30 min; read-out: CDK6/Cyclin D3 IC50
T1 construct: purchased Carna 04-107
Experimental: CDK6/CyclinD3 kinase inhibitory activity (IC50): 5 μl of various dilutions of test compound in 1× kinase buffer (50 mM HEPES pH 7.5, 10 mM MgCl2, 2 mM DTT and 0.01% Brij-35) was mixed with 10 μL of CDK6/CyclinD3 (Carna, 04-107 #, final concentration 15 nM in 1× Kinase buffer) in 384 plates and incubated at room temperature for 10 min. To initiate each reaction, 10 μL of peptide solution containing fluorescently-labeled -peptide 8(5-FAM-IPTSPITTTYFFFKKK-COOH, GL, 112396 #, final concentration 3000 nM) and ATP (final concentration 800 μM for CDK6/CyclinD3 in 1× Kinase buffer was added to each of the wells containing test compound and CDK6/CyclinD3. The reaction is then allowed to proceed at 28° C. for 30 min and terminated by the addition of 25 μL stop buffer (100 mM HEPES pH 7.5, 50 mM EDTA, 0.2% Coating Reagent #3 (Perkin Elmer, 760050 #) and 0.015% Brij-35).
(§1) Following the kinase reaction, Caliper EZ reader II (Downstream voltages: −500V, Upstream voltages: −2250V, Base pressure −0.5 PSI, Screen pressure −1.2 PSI) was used to separate the phosphorylated (product) and the unphosphorylated (substrate) fluorescently-labeled peptide 8 based on their different mobility. Both substrate and product were measured and the ratio of these values were used to generate % conversion by Caliper EZ reader II. These conversion values were then transformed into % inhibition of kinase activity using the formula: % Inhibition=[(MA−X)/(MA−MI)]×100% where MA=conversion value of DMSO only controls, MI=conversion value of no enzyme controls and X=conversion value at any given compound dose. IC50 values were then calculated by plotting dose-response curves and then using the XLfit application in Excel software.

CDK4/CyclinD1 = target: T2, CDK4/CyclinD1 (Homo sapiens, UniProt P11802); test: CDK4/CyclinD1 kinase inhibitory activity (Caliper mobility shift); format: biochemical; settings: enzyme 20 nM, ATP 672 uM, 28° C. 30 min; read-out: CDK4/Cyclin D1 IC50
T2 construct: purchased ProQinase 0142-0143-1
T2 sequence (P11802 whole entry): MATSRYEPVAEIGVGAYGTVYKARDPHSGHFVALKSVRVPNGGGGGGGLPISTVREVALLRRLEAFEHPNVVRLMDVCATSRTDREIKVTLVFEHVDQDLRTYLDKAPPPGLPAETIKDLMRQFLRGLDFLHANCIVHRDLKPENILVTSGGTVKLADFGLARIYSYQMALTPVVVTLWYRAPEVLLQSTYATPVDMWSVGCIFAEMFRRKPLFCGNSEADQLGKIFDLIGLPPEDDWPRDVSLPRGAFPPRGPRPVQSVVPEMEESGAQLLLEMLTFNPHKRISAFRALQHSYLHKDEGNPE
T2 sequence (P24385 whole entry partner): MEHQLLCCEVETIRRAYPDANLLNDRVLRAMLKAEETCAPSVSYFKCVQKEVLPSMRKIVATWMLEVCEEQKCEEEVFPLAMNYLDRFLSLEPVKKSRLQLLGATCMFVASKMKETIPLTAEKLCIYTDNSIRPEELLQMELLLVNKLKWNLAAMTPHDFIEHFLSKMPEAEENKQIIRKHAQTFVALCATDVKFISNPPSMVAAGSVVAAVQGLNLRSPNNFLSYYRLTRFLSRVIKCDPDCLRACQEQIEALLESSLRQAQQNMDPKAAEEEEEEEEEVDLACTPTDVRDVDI
Experimental: CDK4/CyclinD1 kinase inhibitory activity (IC50): 5 μl of various dilutions of test compound in 1× kinase buffer (20 mM HEPES, pH 7.5, 10 mM MgCl2, 2 mM DTT and 0.01% Triton X-100) was mixed with 10 μL of either CDK4/Cyclin D1 (ProQinase, 0142-0143-1 #, final concentration 20 nM in 1× Kinase buffer) or in 384 plates and incubated at room temperature for 10 min. To initiate each reaction, 10 μL of peptide solution containing fluorescently-labeled-peptide 8(5-FAM-IPTSPITTTYFFFKKK-COOH, GL, 112396 #, final concentration 3000 nM) and ATP (final concentration 672 uM for CDK4/CyclinD1) in 1×Kinase buffer was added to each of the wells containing test compound and CDK4/CyclinD1 mixture. The reaction is then allowed to proceed at 28° C. for 30 min and terminated by the addition of 25 μL stop buffer (100 mM HEPES pH 7.5, 50 mM EDTA, 0.2% Coating Reagent #3 (Perkin Elmer, 760050 #) and 0.015% Brij-35).
as §1

T1 sequence (Q00534 whole entry): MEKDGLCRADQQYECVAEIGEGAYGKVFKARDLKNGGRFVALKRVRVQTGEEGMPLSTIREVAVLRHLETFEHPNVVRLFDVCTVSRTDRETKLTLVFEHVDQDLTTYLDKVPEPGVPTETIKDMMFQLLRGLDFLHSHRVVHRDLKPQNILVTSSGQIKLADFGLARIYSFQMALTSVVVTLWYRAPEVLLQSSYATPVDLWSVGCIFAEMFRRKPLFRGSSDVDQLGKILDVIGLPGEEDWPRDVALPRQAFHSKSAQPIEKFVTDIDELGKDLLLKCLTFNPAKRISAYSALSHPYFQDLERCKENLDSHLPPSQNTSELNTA
T1 sequence (P30281 whole entry partner): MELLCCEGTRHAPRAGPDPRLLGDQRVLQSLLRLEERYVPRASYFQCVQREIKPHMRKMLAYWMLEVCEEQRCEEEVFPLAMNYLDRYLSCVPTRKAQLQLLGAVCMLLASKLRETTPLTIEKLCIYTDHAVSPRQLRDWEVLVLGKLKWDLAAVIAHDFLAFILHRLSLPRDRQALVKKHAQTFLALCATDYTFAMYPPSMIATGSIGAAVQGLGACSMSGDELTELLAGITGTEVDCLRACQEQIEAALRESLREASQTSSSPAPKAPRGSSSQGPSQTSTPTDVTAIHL

| IC50 (CDK6/CyclinD3) | IC50 (CDK4/CyclinD1) | Compound |
| --- | --- | --- |
| 100 to 1000 nM | 10 to 100 nM | CC(C)(O)c1cnc2c(F)cc(-c3nc(N[C@@H]4CCOC[C@H]4O)ncc3C#N)cc2c1 [Example 2, 4-(8-fluoro-3-(2-hydroxypropan-2-yl)quinolin-6-yl)-2-(((3S,4R)-3-hydroxytetrahydro-2H-pyran-4-yl)amino)pyrimidine-5-carbonitrile] |
| 100 to 1000 nM | 100 to 1000 nM | Cc1cc(C(C)(C)O)c2cc(-c3nc(N[C@@H]4CCOC[C@H]4O)ncc3Cl)ccc2n1 [Example 4, (3S,4R)-4-((5-chloro-4-(4-(2-hydroxypropan-2-yl)-2-methylquinolin-6-yl)pyrimidin-2-yl)amino)tetrahydro-2H-pyran-3-ol] |
| 100 to 1000 nM | 10 to 100 nM | CC(C)(O)c1cnc2ccc(-c3nc(N[C@@H]4CCOC[C@H]4O)ncc3Cl)cc2c1 [Example 6, (3S,4R)-4-((5-chloro-4-(3-(2-hydroxypropan-2-yl)quinolin-6-yl)pyrimidin-2-yl)amino)tetrahydro-2H-pyran-3-ol] |
| ≥ 1000 nM | 100 to 1000 nM | Cc1nc2c(cnc3ccc(-c4nc(N[C@@H]5CCOC[C@H]5O)ncc4Cl)cc32)[nH]1 [Example 10, (3S,4R)-4-((5-chloro-4-(2-methyl-3H-imidazo[4,5-c]quinolin-8-yl)pyrimidin-2-yl)amino)tetrahydro-2H-pyran-3-ol] |
| 100 to 1000 nM | 10 to 100 nM | Cc1n[nH]c2cnc3ccc(-c4nc(N[C@@H]5CCOC[C@H]5O)ncc4Cl)cc3c12 [Example 11, (3S,4R)-4-((5-chloro-4-(1-methyl-3H-pyrazolo[3,4-c]quinolin-8-yl)pyrimidin-2-yl)amino)tetrahydro-2H-pyran-3-ol] |
| 100 to 1000 nM | 10 to 100 nM | Cc1n[nH]c2c1-c1cc(-c3nc(N[C@@H]4CCOC[C@H]4O)ncc3Cl)ccc1OC2 [Example 13, (3S,4R)-4-((5-chloro-4-(1-methyl-3,4-dihydrochromeno[3,4-c]pyrazol-8-yl)pyrimidin-2-yl)amino)tetrahydro-2H-pyran-3-ol] |
| 100 to 1000 nM | < 10 nM | O[C@@H]1COCC[C@H]1Nc1ncc(Cl)c(-c2cc(F)c3ncc(C4(O)CCC4)cc3c2)n1 [Example 16, (3S,4R)-4-((5-chloro-4-(8-fluoro-3-(1-hydroxycyclobutyl)quinolin-6-yl)pyrimidin-2-yl)amino)tetrahydro-2H-pyran-3-ol] |
| 100 to 1000 nM | 10 to 100 nM | O[C@@H]1COCC[C@H]1Nc1ncc(Cl)c(-c2cc(F)c3ncc(-c4ncc[nH]4)cc3c2)n1 [Example 28] |
| 100 to 1000 nM | < 10 nM | Cc1nc2c(F)cc(-c3nc(N[C@@H]4CCOC[C@H]4O)ncc3Cl)cc2c2c1CCNC2 [Example 33] |
| 100 to 1000 nM | < 10 nM | CC(C)(O)c1cnc2c(F)cc(-c3cc(N[C@@H]4CCOC[C@H]4O)ncc3Cl)cc2c1Cl [Example 42] |
| 100 to 1000 nM | < 10 nM | COc1c(C(C)(C)O)cnc2c(F)cc(-c3nc(N[C@@H]4CCOC[C@H]4O)ncc3Cl)cc12 [Example 43] |
| 10 to 100 nM | < 10 nM | O[C@@H]1COCC[C@H]1Nc1ncc(Cl)c(-c2cc(F)c3ncc(C4(O)CC4)c(Cl)c3c2)n1 [Example 44] |
| 100 to 1000 nM | < 10 nM | CC(C)(O)C1COc2c(F)cc(-c3nc(N[C@@H]4CCOC[C@H]4O)ncc3Cl)cc2C1 (stereo partly shown) [Example 46] |
| 100 to 1000 nM | 10 to 100 nM | CC(C)(O)C1COc2c(F)cc(-c3nc(N[C@@H]4CCOC[C@H]4O)ncc3Cl)cc2C1 (stereo partly shown) [Example 47] |
| ≥ 1000 nM | 10 to 100 nM | CC1(C)Cc2cnc3c(F)cc(-c4nc(N[C@@H]5COC[C@H]5O)ncc4Cl)cc3c2CN1 [Example 50] |
| 100 to 1000 nM | < 10 nM | Cc1nc2c(F)cc(-c3nc(N[C@@H]4CCOC[C@H]4O)ncc3F)cc2cc1C(C)(C)O [Example 51] |
| 100 to 1000 nM | < 10 nM | CC(C)(O)c1cnc2c(F)cc(-c3nc(N[C@@H]4CCOC[C@H]4O)ncc3Cl)cc2c1F [Example 53] |
| ≥ 1000 nM | < 10 nM | CC(C)(O)c1cnc2c(F)cc(-c3nc(Nc4ccc(-c5cn[nH]c5)cn4)ncc3F)cc2c1Cl [Example 55] |
| 100 to 1000 nM | 10 to 100 nM | CCc1c(C(C)(C)O)nnc2c(F)cc(-c3nc(N[C@@H]4CCOC[C@H]4O)ncc3Cl)cc12 [Example 61, (3S,4R)-4-((5-chloro-4-(4-ethyl-8-fluoro-3-(2-hydroxypropan-2-yl)cinnolin-6-yl)pyrimidin-2-yl)amino)tetrahydro-2H-pyran-3-ol] |

| IC50 (CDK6/CyclinD3) | IC50 (CDK4/CyclinD1) | Compound |
| --- | --- | --- |
| 10 to 100 nM | < 10 nM | [2H]C1([2H])NC(C)(C)Cc2cnc3c(F)cc(-c4nc(N[C@@H]5CCOC[C@H]5O)ncc4F)cc3c21 [Example 62, (3S,4R)-4-((5-fluoro-4-(7-fluoro-3,3-dimethyl-1,2,3,4-tetrahydrobenzo[c][2,6]naphthyridin-9-yl-1,1-d2)pyrimidin-2-yl)amino)tetrahydro-2H-pyran-3-ol] |
| 100 to 1000 nM | 10 to 100 nM | [2H]c1nc2c(F)cc(-c3ccnc(N[C@@H]4CCOC[C@H]4O)n3)cc2c2c1CC1(CC1)NC2 [Example 66] |
| 100 to 1000 nM | < 10 nM | Cc1nc2c(F)cc(-c3nc(N[C@@H]4CCOC[C@H]4O)ncc3Cl)cc2c2c1CC1(CC1)NC2 [Example 69] |
| 100 to 1000 nM | < 10 nM | [2H]c1nc2c(F)cc(-c3nc(N[C@@H]4CCOC[C@H]4O)ncc3F)cc2c2c1CC1(CC1)NC2 [Example 70] |
| 100 to 1000 nM | < 10 nM | [2H]c1nc(N[C@@H]2CCOC[C@H]2O)nc(-c2cc(F)c3nc([2H])c4c(c3c2)CNC2(CC2)C4)c1F [Example 71] |
| 100 to 1000 nM | < 10 nM | [2H]c1nc2c(F)cc(-c3nc(N[C@@H]4CCOC[C@H]4O)ncc3Cl)cc2c2c1CC1(CC1)NC2 [Example 72] |
| 100 to 1000 nM | 10 to 100 nM | Cc1cc(C(C)(C)O)c2cc(-c3nc(N[C@@H]4CCOC[C@H]4O)ncc3Cl)cc(F)c2n1 [Example 75] |
| 100 to 1000 nM | 10 to 100 nM | Cc1cc(C(C)(C)O)c2cc(-c3nc(N[C@@H]4CCOC[C@H]4O)ncc3F)cc(F)c2n1 [Example 76] |
| 100 to 1000 nM | < 10 nM | Cc1nc2c(F)cc(-c3cc(N[C@@H]4CCOC[C@H]4O)ncc3F)cc2cc1C(C)(C)O [Example 78] |
| ≥ 1000 nM | 10 to 100 nM | CC(C)(O)c1cnc2c(F)cc(-c3nc(Nc4ccc(C(=O)CO)cn4)ncc3F)cc2c1Cl [Example 80] |
| 100 to 1000 nM | 10 to 100 nM | Cc1c(C(C)(C)O)nnc2c(F)cc(-c3nc(N[C@@H]4CCOC[C@H]4O)ncc3Cl)cc12 [Example 87] |
| 100 to 1000 nM | < 10 nM | Cc1nc2c(F)cc(-c3nc(N[C@@H]4CCOC[C@H]4O)ncc3F)cc2c2c1CC(C)(C)NC2 [Example 92] |
| 10 to 100 nM | < 10 nM | [2H]c1nc(N[C@@H]2CCOC[C@H]2O)nc(-c2cc(F)c3nc([2H])c(C(C)(C)O)c(C)c3c2)c1F [Example 95] |
| ≥ 1000 nM | 10 to 100 nM | Cc1cc(C(C)(C)O)nc2c(F)cc(-c3nc(N[C@@H]4CCOC[C@H]4O)ncc3F)cc12 [Example 96] |
| 100 to 1000 nM | 10 to 100 nM | CC(C)(O)c1cnc2c(F)cc(-c3ccnc(N[C@@H]4CCOC[C@H]4O)n3)cc2c1Cl [Example 97] |
| ≥ 1000 nM | 10 to 100 nM | Cc1nc2c(F)cc(-c3ccnc(N[C@@H]4CCOC[C@H]4O)n3)cc2c2c1CC(C)(C)NC2 [Example 99] |
| 100 to 1000 nM | < 10 nM | [2H]c1nc2c(F)cc(-c3ccnc(N[C@@H]4CCOC[C@H]4O)n3)cc2c2c1CC(C)(C)NC2 [Example 101] |
| 100 to 1000 nM | < 10 nM | [2H]c1nc(N[C@@H]2CCOC[C@H]2O)nc(-c2cc(F)c3nc(C)c4c(c3c2)CNC(C)(C)C4)c1Cl [Example 103] |
| ≥ 1000 nM | 10 to 100 nM | Cc1cnc(N[C@@H]2CCOC[C@H]2O)nc1-c1cc(F)c2nc(C)c3c(c2c1)CNC(C)(C)C3 [Example 104] |

Source: patent US20260242395A1, “AMINOHETEROARYL KINASE INHIBITORS” (ALLORION THERAPEUTICS INC, priority 2022, published 2026)
